For one molecule, Km results are on record in patent publication US6146868A, “Glucuronoxylomannan (GXM)-O-acetylhydrolase of cryptococcus neoformans and uses thereof” (Research Development Foundation, priority 1999, dated 2000).

Molecules are shown by their SMILES.

The subject of assay [1] is native (wild-type) glucuronoxylomannan (GXM)-O-acetylhydrolase purified from mixed unknown bacterial culture. Put plainly: PNP-acetate plate assay, kinetics (Km), native enzyme. The assay is classed as biochemical, mixed unknown bacterial culture from sewage. To be noted: pH 7.2, A405 kinetic reading, hyperbolic regression, read-out: Km for PNP-acetate (KPNPA). An excerpt:
Purification, LysC Degradation and Amino Acid Sequencing of Wild-Type Enzyme: The native GXM O-acetylhydrolase was purified from a mixed unknown bacterial culture that was collected from sewage. The purification was achieved by the following steps: cholate extraction, ammonium sulfate precipitation, molecular sieve chromatography, and ion exchange on a mono Q column followed by a mono S column.
PNP-Carboxyl Ester Assay: This assay determines specificity of enzymatic activity for five different PNP-fatty acid esters: PNP-acetate (2 carbon), PNP-propionate (3 carbon), PNP-butyrate (4 carbon), PNP-laurate (12 carbon), and PNP-palmitate (16 carbon). The assay was set up in a 96-well plate and read at 405 n m on a BIO-TEK Ceres 900 plate reader. Each reaction consisted of: 200 μl PBS buffer, pH 7.2; 50 μl PNP-ester solution, 0.77 mM; and 50 μl of enzyme (containing various levels of enzyme) added just prior to reading at 405 nm. Non-enzymic hydrolysis was measured in a solution that consisted of 200 μl PBS buffer, pH 7.2; 50 μl PNP-ester solution, 0.77 mM; and 50 μl PBS, pH 7.2, the buffer replacing the enzyme. Standard curves were obtained by measurement of the A405 of solutions of known amounts of para-nitrophenol. This assay was read within 30 seconds in a single point manner as the enzyme works rapidly on this substrate. […]

Assay [2] deals with recombinant glucuronoxylomannan (GXM)-O-acetylhydrolase, SEQ ID No. 31 (His-tagged short clone expressed in E. coli). Put plainly: PNP-acetate plate assay, kinetics (Km), recombinant enzyme. The following applies: pH 7.2, A405 kinetic reading, hyperbolic regression, read-out: Km for PNP-acetate (KPNPA). Type of assay: biochemical, mixed unknown bacterial culture from sewage. As for the experimental part:
PNP-Carboxyl Ester Assay: This assay determines specificity of enzymatic activity for five different PNP-fatty acid esters: PNP-acetate (2 carbon), PNP-propionate (3 carbon), PNP-butyrate (4 carbon), PNP-laurate (12 carbon), and PNP-palmitate (16 carbon). The assay was set up in a 96-well plate and read at 405 n m on a BIO-TEK Ceres 900 plate reader. Each reaction consisted of: 200 μl PBS buffer, pH 7.2; 50 μl PNP-ester solution, 0.77 mM; and 50 μl of enzyme (containing various levels of enzyme) added just prior to reading at 405 nm. Non-enzymic hydrolysis was measured in a solution that consisted of 200 μl PBS buffer, pH 7.2; 50 μl PNP-ester solution, 0.77 mM; and 50 μl PBS, pH 7.2, the buffer replacing the enzyme. […] This assay was read within 30 seconds in a single point manner as the enzyme works rapidly on this substrate.
PNP-Acetate Assay: This assay was routinely used to determine enzymatic activity in samples of recombinant enzyme at the various steps in its expression and purification as described above, but with the PNP-acetate substrate only. This reaction was measured at pH=6.2 to 8.2. […]
Kinetics: Kinetics of the enzyme were investigated through use of the PNP-acetate plate assay and the competition assay described above. The plates were read on the BIO-TEK Ceres 900 plate reader at 405 nm with a kinetic protocol that took readings every 20 seconds for 3 minutes. […]

As for `CC(=O)Oc1ccc([N+](=O)[O-])cc1` [PNP-acetate], the Km (commonly the substrate concentration at which the rate is half of its maximum) in assay [1] is 1260 µM; in assay [2] it was 1340 µM.
